Source: ChEMBL document CHEMBL3808385, “Synthesis, antitumor evaluation and molecular docking studies of [1,2,4]triazolo[4,3-b][1,2,4,5]tetrazine derivatives” (Bioorg Med Chem Lett, 2016)

System: Mus musculus
Test: Toxicity in ICR mouse assessed as convulsions on limbs at 72.9 mg/kg, ig measured after 14 days
Type: organism-based, Limb
Settings: in vivo, po, 336 h
With `c1nnc2nnc(N3CCOCC3)nn12` the Activity was “Toxic”.

System: Mus musculus
Test: Toxicity in ICR mouse assessed as loss of locomotor activity at 81 mg/kg, ig measured after 14 days
Type: organism-based
Settings: in vivo, po, 336 h
For `c1nnc2nnc(N3CCOCC3)nn12`, the Activity was “Toxic”.

System: MCF7
Test: Cytotoxicity against human MCF7 cells assessed as cell growth inhibition after 72 hrs by MTT assay
Type: functional, cell-based
Settings: MCF7, 72 h
Compound `CC(=O)N1CCN(c2nnc3nncn3n2)CC1` has an IC50 of 13.9 µM. `OCC(CO)(CO)Nc1nnc2nncn2n1` showed an IC50 greater than 100 µM. Work on `CCCCCC(=O)N1CCN(c2nnc3nncn3n2)CC1` yielded an IC50 of 5.26 µM. For `CN(C)c1nnc2nncn2n1`, the IC50 was 7.76 µM. In the case of `c1nnc2nnc(NC3CCCCC3)nn12`, the IC50 is reported as 3.51 µM. In the case of `c1nnc2nnc(NC3CCCC3)nn12`, the IC50 is reported as 88.2 µM. Work on `Cc1cc(C)n(-c2nnc3nncn3n2)n1` yielded an IC50 greater than 100 µM. In the case of `c1ccc(CCNc2nnc3nncn3n2)cc1`, the IC50 is reported as 1.24 µM. Work on `c1nnc2nnc(N3CCCC3)nn12` yielded an IC50 of 5.13 µM. In the case of `CCCCC(=O)N1CCN(c2nnc3nncn3n2)CC1`, the IC50 is reported as 2.76 µM. `O=C(c1ccc([N+](=O)[O-])cc1)N1CCN(c2nnc3nncn3n2)CC1` gave an IC50 of 4.53 µM. For `O=C(c1ccccc1)N1CCN(c2nnc3nncn3n2)CC1`, the IC50 was 8.38 µM. `CCCCNc1nnc2nncn2n1` gave an IC50 of 13.7 µM. With `Nc1nnc2nncn2n1` the IC50 was 46.5 µM. `c1nnc2nnc(N3CCOCC3)nn12` gave an IC50 of 2.24 µM.

System: Mus musculus
Test: Toxicity in ICR mouse assessed as respiratory depression at 100 mg/kg, ig measured after 14 days
Type: organism-based
Settings: in vivo, po, 336 h
In the case of `c1nnc2nnc(N3CCOCC3)nn12`, the Activity is reported as “Toxic”.

System: not listed separately
Test: Toxicity in ig dosed ICR mouse assessed as mortality measured after 14 days
Type: organism-based
Settings: in vivo, po
`c1nnc2nnc(N3CCOCC3)nn12` showed an LD50 at 336 h of 82.5 mg/kg.

System: Mus musculus
Test: Toxicity in ICR mouse assessed as loss of locomotor activity at 72.9 mg/kg, ig measured after 14 days
Type: organism-based
Settings: in vivo, po, 336 h
With `c1nnc2nnc(N3CCOCC3)nn12` the Activity was “Toxic”.

System: Mus musculus
Test: Toxicity in ICR mouse assessed as clinical signs parameters at 65.6 mg/kg, ig measured after 14 days
Type: organism-based
Settings: in vivo, po, 336 h
For `c1nnc2nnc(N3CCOCC3)nn12`, the Activity was “Non-toxic”.

System: CCRF S-180
Test: Antitumor activity against mouse S180 cells xenografted in ICR mouse assessed as tumor growth inhibition at 20 mg/kg, ig administered once daily for 7 days starting from second day post xenograft measured after 10 days
Type: functional
Settings: CCRF S-180, po, read-out: TGI
For `c1nnc2nnc(N3CCOCC3)nn12`, the inhibition in vivo at 20 mg/kg was 27.9%.

System: Mus musculus
Test: Toxicity in ICR mouse assessed as respiratory depression at 81 mg/kg, ig measured after 14 days
Type: organism-based
Settings: in vivo, po, 336 h
In the case of `c1nnc2nnc(N3CCOCC3)nn12`, the Activity is reported as “Toxic”.

System: Mus musculus
Test: Toxicity in ICR mouse assessed as loss of locomotor activity at 90 mg/kg, ig measured after 14 days
Type: organism-based
Settings: in vivo, po, 336 h
With `c1nnc2nnc(N3CCOCC3)nn12` the Activity was “Toxic”.

System: Mus musculus
Test: Toxicity in ICR mouse assessed as convulsions on limbs at 81 mg/kg, ig measured after 14 days
Type: organism-based, Limb
Settings: in vivo, po, 336 h
In the case of `c1nnc2nnc(N3CCOCC3)nn12`, the Activity is reported as “Toxic”.

System: Mus musculus
Test: Toxicity in ICR mouse assessed as respiratory depression at 72.9 mg/kg, ig measured after 14 days
Type: organism-based
Settings: in vivo, po, 336 h
With `c1nnc2nnc(N3CCOCC3)nn12` the Activity was “Toxic”.

System: not listed separately
Test: Toxicity in ICR mouse assessed as mortality at 72.9 mg/kg, ig measured after 14 days
Type: organism-based
Settings: in vivo, po
Compound `c1nnc2nnc(N3CCOCC3)nn12` has a mortality at 336 h of 25%.

System: BeWo
Test: Cytotoxicity against human Bewo cells assessed as cell growth inhibition after 72 hrs by MTT assay
Type: functional, cell-based
Settings: not given
`CC(=O)N1CCN(c2nnc3nncn3n2)CC1` showed an IC50 of 13.1 µM. With `OCC(CO)(CO)Nc1nnc2nncn2n1` the IC50 was 12.4 µM. Compound `CCCCCC(=O)N1CCN(c2nnc3nncn3n2)CC1` has an IC50 of 2.96 µM. In the case of `CN(C)c1nnc2nncn2n1`, the IC50 is reported as 0.61 µM. `c1nnc2nnc(NC3CCCCC3)nn12` gave an IC50 of 2.65 µM. In the case of `c1nnc2nnc(NC3CCCC3)nn12`, the IC50 is reported as 34.6 µM. With `Cc1cc(C)n(-c2nnc3nncn3n2)n1` the IC50 was 47.3 µM. `c1ccc(CCNc2nnc3nncn3n2)cc1` gave an IC50 of 2.49 µM. Compound `c1nnc2nnc(N3CCCC3)nn12` has an IC50 of 4.29 µM. Compound `CCCCC(=O)N1CCN(c2nnc3nncn3n2)CC1` has an IC50 of 1.72 µM. In the case of `O=C(c1ccc([N+](=O)[O-])cc1)N1CCN(c2nnc3nncn3n2)CC1`, the IC50 is reported as 3.1 µM. With `O=C(c1ccccc1)N1CCN(c2nnc3nncn3n2)CC1` the IC50 was 5.87 µM. Compound `CCCCNc1nnc2nncn2n1` has an IC50 of 8.64 µM. In the case of `Nc1nnc2nncn2n1`, the IC50 is reported as 17.3 µM. Compound `c1nnc2nnc(N3CCOCC3)nn12` has an IC50 of 1.3 µM.

System: CCRF S-180
Test: Antitumor activity against mouse S180 cells xenografted in ICR mouse assessed as tumor growth inhibition at 10 mg/kg, ig administered once daily for 7 days starting from second day post xenograft measured after 10 days
Type: functional
Settings: CCRF S-180, po, read-out: TGI
Work on `c1nnc2nnc(N3CCOCC3)nn12` yielded an inhibition in vivo at 10 mg/kg of 63%.

System: Mus musculus
Test: Toxicity in ICR mouse assessed as body weight loss at 65.6 mg/kg, ig measured after 14 days
Type: organism-based
Settings: in vivo, po, 336 h
With `c1nnc2nnc(N3CCOCC3)nn12` the Activity was “Non-toxic”.

System: Mus musculus
Test: Toxicity in ICR mouse assessed as respiratory depression at 90 mg/kg, ig measured after 14 days
Type: organism-based
Settings: in vivo, po, 336 h
In the case of `c1nnc2nnc(N3CCOCC3)nn12`, the Activity is reported as “Toxic”.

System: Mus musculus
Test: Toxicity in ICR mouse assessed as pulmonary congestion at 72.9 mg/kg, ig measured after 14 days
Type: organism-based
Settings: in vivo, po, 336 h
For `c1nnc2nnc(N3CCOCC3)nn12`, the Activity was “Toxic”.

Target: Hepatocyte growth factor receptor (Homo sapiens, UniProt P08581)
Sequence (P08581 whole entry): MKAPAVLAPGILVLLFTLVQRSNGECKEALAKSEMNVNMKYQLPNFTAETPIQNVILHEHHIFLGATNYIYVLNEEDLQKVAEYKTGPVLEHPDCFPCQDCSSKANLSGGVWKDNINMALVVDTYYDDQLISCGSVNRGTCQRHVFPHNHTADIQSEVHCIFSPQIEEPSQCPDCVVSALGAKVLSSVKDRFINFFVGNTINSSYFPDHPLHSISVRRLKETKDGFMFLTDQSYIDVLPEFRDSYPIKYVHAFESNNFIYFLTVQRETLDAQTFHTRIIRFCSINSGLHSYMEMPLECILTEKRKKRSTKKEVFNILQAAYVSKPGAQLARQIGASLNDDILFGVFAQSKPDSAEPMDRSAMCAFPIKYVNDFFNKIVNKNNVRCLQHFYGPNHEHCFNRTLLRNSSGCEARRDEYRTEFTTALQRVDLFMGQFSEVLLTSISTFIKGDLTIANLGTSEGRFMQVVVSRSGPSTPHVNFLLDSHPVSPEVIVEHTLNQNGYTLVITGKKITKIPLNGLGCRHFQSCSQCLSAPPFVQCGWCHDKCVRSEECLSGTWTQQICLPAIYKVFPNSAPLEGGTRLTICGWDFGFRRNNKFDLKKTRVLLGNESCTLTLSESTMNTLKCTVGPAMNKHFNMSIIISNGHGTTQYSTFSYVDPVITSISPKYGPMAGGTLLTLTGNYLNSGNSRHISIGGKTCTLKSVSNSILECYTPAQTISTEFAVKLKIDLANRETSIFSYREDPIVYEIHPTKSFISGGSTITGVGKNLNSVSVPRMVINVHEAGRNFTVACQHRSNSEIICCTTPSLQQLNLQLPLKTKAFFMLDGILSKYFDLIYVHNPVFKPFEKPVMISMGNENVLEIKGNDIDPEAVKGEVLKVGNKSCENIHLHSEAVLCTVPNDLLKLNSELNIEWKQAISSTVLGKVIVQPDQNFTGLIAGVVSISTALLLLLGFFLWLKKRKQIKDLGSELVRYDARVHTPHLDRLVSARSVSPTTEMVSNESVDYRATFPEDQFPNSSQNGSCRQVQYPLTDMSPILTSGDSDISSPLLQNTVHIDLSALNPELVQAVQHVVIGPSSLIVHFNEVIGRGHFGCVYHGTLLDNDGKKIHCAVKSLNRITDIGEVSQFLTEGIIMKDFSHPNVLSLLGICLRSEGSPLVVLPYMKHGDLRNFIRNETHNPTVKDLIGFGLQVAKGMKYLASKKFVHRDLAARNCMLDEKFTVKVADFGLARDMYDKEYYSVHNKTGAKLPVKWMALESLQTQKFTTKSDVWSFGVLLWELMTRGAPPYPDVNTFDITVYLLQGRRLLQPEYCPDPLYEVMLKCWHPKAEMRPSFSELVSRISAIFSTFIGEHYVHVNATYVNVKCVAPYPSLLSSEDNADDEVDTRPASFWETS
Test: Inhibition of cMET (unknown origin) using TK substrate-biotin as substrate preincubated with compound followed by substrate addition for 40 mins measured after 1 hr by HTRF assay
Settings: not given
For `c1nnc2nnc(N3CCOCC3)nn12`, the IC50 was 11.8 µM.

System: Mus musculus
Test: Toxicity in ICR mouse assessed as pulmonary congestion at 100 mg/kg, ig measured after 14 days
Type: organism-based
Settings: in vivo, po, 336 h
In the case of `c1nnc2nnc(N3CCOCC3)nn12`, the Activity is reported as “Toxic”.

System: Mus musculus
Test: Toxicity in ICR mouse assessed as loss of locomotor activity at 100 mg/kg, ig measured after 14 days
Type: organism-based
Settings: in vivo, po, 336 h
For `c1nnc2nnc(N3CCOCC3)nn12`, the Activity was “Toxic”.

System: Mus musculus
Test: Toxicity in ICR mouse assessed as pulmonary congestion at 90 mg/kg, ig measured after 14 days
Type: organism-based
Settings: in vivo, po, 336 h
With `c1nnc2nnc(N3CCOCC3)nn12` the Activity was “Toxic”.

System: CCRF S-180
Test: Antitumor activity against mouse S180 cells xenografted in ICR mouse assessed as tumor growth inhibition at 5 mg/kg, ig administered once daily for 7 days starting from second day post xenograft measured after 10 days
Type: functional
Settings: CCRF S-180, po, read-out: TGI
Work on `c1nnc2nnc(N3CCOCC3)nn12` yielded an inhibition in vivo at 5 mg/kg of 24.2%.

System: not listed separately
Test: Toxicity in ICR mouse assessed as mortality at 65.6 mg/kg, ig measured after 14 days
Type: organism-based
Settings: in vivo, po
Work on `c1nnc2nnc(N3CCOCC3)nn12` yielded a mortality at 336 h of 0%.

System: Mus musculus
Test: Toxicity in ICR mouse assessed as convulsions on limbs at 100 mg/kg, ig measured after 14 days
Type: organism-based, Limb
Settings: in vivo, po, 336 h
For `c1nnc2nnc(N3CCOCC3)nn12`, the Activity was “Toxic”.

System: not listed separately
Test: Cytotoxicity against human HL60 cells assessed as cell growth inhibition after 72 hrs by MTT assay
Type: functional, cell-based
Settings: HL-60, 72 h
For `CC(=O)N1CCN(c2nnc3nncn3n2)CC1`, the IC50 was 14.7 µM. With `OCC(CO)(CO)Nc1nnc2nncn2n1` the IC50 was greater than 100 µM. `CCCCCC(=O)N1CCN(c2nnc3nncn3n2)CC1` showed an IC50 of 3.61 µM. `CN(C)c1nnc2nncn2n1` gave an IC50 of 4.84 µM. In the case of `c1nnc2nnc(NC3CCCCC3)nn12`, the IC50 is reported as 6.61 µM. In the case of `c1nnc2nnc(NC3CCCC3)nn12`, the IC50 is reported as 38.1 µM. For `Cc1cc(C)n(-c2nnc3nncn3n2)n1`, the IC50 was 63.3 µM. For `c1ccc(CCNc2nnc3nncn3n2)cc1`, the IC50 was 4.15 µM. In the case of `c1nnc2nnc(N3CCCC3)nn12`, the IC50 is reported as 24.4 µM. `CCCCC(=O)N1CCN(c2nnc3nncn3n2)CC1` gave an IC50 of 3.13 µM. `O=C(c1ccc([N+](=O)[O-])cc1)N1CCN(c2nnc3nncn3n2)CC1` gave an IC50 of 17.2 µM. Work on `O=C(c1ccccc1)N1CCN(c2nnc3nncn3n2)CC1` yielded an IC50 of 4.67 µM. `CCCCNc1nnc2nncn2n1` showed an IC50 of 36.2 µM. `Nc1nnc2nncn2n1` gave an IC50 of 68.5 µM. With `c1nnc2nnc(N3CCOCC3)nn12` the IC50 was 1.45 µM.

System: Mus musculus
Test: Toxicity in ICR mouse assessed as convulsions on limbs at 90 mg/kg, ig measured after 14 days
Type: organism-based, Limb
Settings: in vivo, po, 336 h
For `c1nnc2nnc(N3CCOCC3)nn12`, the Activity was “Toxic”.

System: Mus musculus
Test: Toxicity in ICR mouse assessed as pulmonary congestion at 81 mg/kg, ig measured after 14 days
Type: organism-based
Settings: in vivo, po, 336 h
For `c1nnc2nnc(N3CCOCC3)nn12`, the Activity was “Toxic”.
